Test results reported in patent publication US20060069132A1, “Azolecarboxamide herbicides” (priority 2004, published 2006).

Legend:
Surinam grass = assay: Test B pre-/postemergence herbicide test; type: in vivo, Urochloa decumbens; settings: for Plant response rating (0 to 100 scale), Surinam Grass: 0 is no effect; for Plant response rating (0 to 100 scale), Surinam Grass / Plant response rating, Surinam Grass: preemergence; for Surinam Grass plant response rating: postemergence; for Plant response rating, Surinam Grass: 0 = no effect, 100 = complete control
In short: (§1)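 Visual rating, 0 (no effect) to 100 (complete control), versus untreated controls after 13–15 d in greenhouse. Pre- and postemergence applications (postemergence plants 2–18 cm, 1–4 leaves); flooded paddy arm at 2-leaf stage. Compounds in non-phytotoxic solvent plus surfactant.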

ducksalad = assay: Test B flooded paddy test; type: in vivo, Heteranthera limosa; settings: 1000 g ai/ha, scale 0 to 100 (0 no effect, 100 complete control)
In short: (§2)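 Plants grow to 1- to 4-leaf stage (2–18 cm) for postemergence spraying, or to 2-leaf stage for the paddy test. Formulated compound is applied. Greenhouse holding lasts 13–15 days. Response is scored visually relative to controls, 0 no effect to 100 complete control; a dash means no result.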

wheat = assay: Test B postemergence herbicide test; type: in vivo, Triticum aestivum; parameters: key to Wheat plant response rating: 0 = no effect, 100 = complete control; settings: postemergence
In short: as §2

barnyardgrass [1] = assay: Test B flooded paddy test; type: in vivo, Echinochloa crus-galli; settings: 1000 g ai/ha, scale 0 to 100 (0 no effect, 100 complete control)
In short: as §2

lambsquarters = assay: Test B pre-/postemergence herbicide test; type: in vivo, Chenopodium album; settings: for Plant response rating (0 to 100 scale), Lambsquarters: 0 is no effect; for Plant response rating (0 to 100 scale), Lambsquarters / Plant response rating, Lambsquarters: preemergence; for Lambsquarters plant response rating: postemergence; for Plant response rating, Lambsquarters: 0 = no effect, 100 = complete control
In short: as §1

barnyardgrass [2] = assay: Test B pre-/postemergence herbicide test; type: in vivo, Echinochloa crus-galli; settings: for Plant response rating (0 to 100 scale), Barnyardgrass: 0 is no effect; for Plant response rating (0 to 100 scale), Barnyardgrass / Plant response rating, Barnyardgrass: preemergence; for Barnyardgrass plant response rating: postemergence; for Plant response rating, Barnyardgrass: 0 = no effect, 100 = complete control
In short: (§3)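 Species tested were Echinochloa crus-galli, Ipomoea coccinea, Xanthium strumarium and Oryza sativa, treated both before emergence and at the 1- to 4-leaf stage; rice and barnyardgrass were also tested under flooding at 2 leaves. Greenhouse incubation lasted 13–15 days before visual 0–100 scoring.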

cocklebur = assay: Test B pre-/postemergence herbicide test; type: in vivo, Xanthium strumarium; settings: for Plant response rating (0 to 100 scale), Cocklebur: 0 is no effect; for Plant response rating (0 to 100 scale), Cocklebur / Plant response rating, Cocklebur: preemergence; for Cocklebur plant response rating: postemergence; for Plant response rating, Cocklebur: 0 = no effect, 100 = complete control
In short: as §3

large crabgrass = assay: Test B pre-/postemergence herbicide test; type: in vivo, Digitaria sanguinalis; settings: for Plant response rating (0 to 100 scale), Crabgrass, Large: 0 is no effect; for Plant response rating (0 to 100 scale), Crabgrass, Large / Plant response rating, Crabgrass, Large: preemergence; for Crabgrass, Large plant response rating: postemergence; for Plant response rating, Crabgrass, Large: 0 = no effect, 100 = complete control
In short: as §1

blackgrass = assay: Test B postemergence herbicide test; type: in vivo, Alopecurus myosuroides; settings: postemergence
In short: as §2

rice = assay: Test B flooded paddy test; type: in vivo, Oryza sativa; settings: 1000 g ai/ha, scale 0 to 100 (0 no effect, 100 complete control)
In short: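 Read-out: visual comparison with controls, scored 0 to 100, where 100 means complete control and 0 no effect. Formulated chemicals were applied postemergence to plants 2–18 cm tall (1- to 4-leaf), or to flooded-paddy plants at the 2-leaf stage, then held 13 to 15 days under glass.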

giant foxtail = assay: Test B pre-/postemergence herbicide test; type: in vivo, Setaria faberi; settings: for Plant response rating (0 to 100 scale), Foxtail, Giant: 0 is no effect; for Plant response rating (0 to 100 scale), Foxtail, Giant / Plant response rating, Foxtail, Giant: preemergence; for Foxtail, Giant plant response rating: postemergence; for Plant response rating, Foxtail, Giant: 0 = no effect, 100 = complete control
In short: as §1

velvetleaf = assay: Test B pre-/postemergence herbicide test; type: in vivo, Abutilon theophrasti; settings: for Plant response rating (0 to 100 scale), Velvetleaf: 0 is no effect, preemergence; for Velvetleaf plant response rating: postemergence
In short: as §1

[3] = test system: small flower umbrella sedge; assay: Test B flooded paddy test; type: in vivo, Cyperus difformis; settings: 1000 g ai/ha, scale 0 to 100 (0 no effect, 100 complete control)
In short: as §2

morningglory = assay: Test B pre-/postemergence herbicide test; type: in vivo, Ipomoea coccinea; settings: for Morningglory plant response rating: postemergence; for Plant response rating, Morningglory: 0 = no effect, 100 = complete control
In short: as §3

pigweed = assay: Test B pre-/postemergence herbicide test; type: in vivo, Amaranthus retroflexus; settings: for Plant response rating (0 to 100 scale), Pigweed: 0 is no effect; for Plant response rating (0 to 100 scale), Pigweed / Plant response rating, Pigweed: preemergence; for Pigweed plant response rating: postemergence; for Plant response rating, Pigweed: 0 = no effect, 100 = complete control
In short: as §1

[4] = 125 g ai/ha, 100 is complete control
[5] = 125 g ai/ha, visual rating, scale 0 (no effect) to 100 (complete control)
[6] = 500 g ai/ha, scale 0 to 100, 0 is no effect, 100 is complete control
[7] = 500 g ai/ha, visual rating, preemergence

## CCC1=NN(C(C)(C)C)CC1C(=O)Nc1cc(C(=O)N2CCCC2)ccc1F (racemic) [Compound 341]
Surinam grass; [4]
  Plant response rating (0 to 100 scale), Surinam Grass: 100
Surinam grass; [5]
  Surinam Grass plant response rating: 10
Surinam grass; 500 g ai/ha, visual rating
  Plant response rating, Surinam Grass: 100
Surinam grass; [6]
  Surinam Grass plant response rating: 20
ducksalad
  Ducksalad plant response rating: 90
wheat; [5]
  Wheat plant response rating: 10
wheat; [6]
  Wheat plant response rating: 20
Barnyardgrass [1]
  Barnyardgrass plant response rating: 90
lambsquarters; [4]
  Plant response rating (0 to 100 scale), Lambsquarters: 100
lambsquarters; [5]
  Lambsquarters plant response rating: 30
lambsquarters; 500 g ai/ha, visual rating
  Plant response rating, Lambsquarters: 100
lambsquarters; [6]
  Lambsquarters plant response rating: 100
Barnyardgrass [2]; [4]
  Plant response rating (0 to 100 scale), Barnyardgrass: 80
Barnyardgrass [2]; [5]
  Barnyardgrass plant response rating: 10
Barnyardgrass [2]; 500 g ai/ha, visual rating
  Plant response rating, Barnyardgrass: 100
Barnyardgrass [2]; [6]
  Barnyardgrass plant response rating: 20
cocklebur; [4]
  Plant response rating (0 to 100 scale), Cocklebur: 40
cocklebur; [5]
  Cocklebur plant response rating: 10
cocklebur; 500 g ai/ha, visual rating
  Plant response rating, Cocklebur: 100
cocklebur; [6]
  Cocklebur plant response rating: 20
Large crabgrass; [4]
  Plant response rating (0 to 100 scale), Crabgrass, Large: 90
Large crabgrass; [5]
  Crabgrass, Large plant response rating: 10
Large crabgrass; 500 g ai/ha, visual rating
  Plant response rating, Crabgrass, Large: 100
Large crabgrass; [6]
  Crabgrass, Large plant response rating: 20
blackgrass; [5]
  Blackgrass plant response rating: 10
blackgrass; [6]
  Blackgrass plant response rating: 20
rice
  Rice plant response rating: 70
Giant foxtail; [4]
  Plant response rating (0 to 100 scale), Foxtail, Giant: 50
Giant foxtail; [5]
  Foxtail, Giant plant response rating: 30
Giant foxtail; 500 g ai/ha, visual rating
  Plant response rating, Foxtail, Giant: 90
Giant foxtail; [6]
  Foxtail, Giant plant response rating: 30
velvetleaf; [4]
  Plant response rating (0 to 100 scale), Velvetleaf: 60
velvetleaf; [5]
  Velvetleaf plant response rating: 20
velvetleaf; [6]
  Velvetleaf plant response rating: 30
[3]
  Sedge, Umbrella plant response rating: 80
morningglory; [5]
  Morningglory plant response rating: 20
morningglory; [7]
  Plant response rating, Morningglory: 30
morningglory; [6]
  Morningglory plant response rating: 40
pigweed; [4]
  Plant response rating (0 to 100 scale), Pigweed: 90
pigweed; [5]
  Pigweed plant response rating: 30
pigweed; 500 g ai/ha, visual rating
  Plant response rating, Pigweed: 100
pigweed; [6]
  Pigweed plant response rating: 60

## CCC1=NN(C(C)(C)C)CC1C(=O)Nc1cc(C(=O)N(C)CC)ccc1F (racemic) [Compound 342]
Surinam grass; [4]
  Plant response rating (0 to 100 scale), Surinam Grass: 50
Surinam grass; [5]
  Surinam Grass plant response rating: 10
Surinam grass; 500 g ai/ha, visual rating
  Plant response rating, Surinam Grass: 100
Surinam grass; [6]
  Surinam Grass plant response rating: 20
ducksalad
  Ducksalad plant response rating: 80
wheat; [5]
  Wheat plant response rating: 0
wheat; [6]
  Wheat plant response rating: 10
Barnyardgrass [1]
  Barnyardgrass plant response rating: 90
lambsquarters; [4]
  Plant response rating (0 to 100 scale), Lambsquarters: 80
lambsquarters; [5]
  Lambsquarters plant response rating: 60
lambsquarters; 500 g ai/ha, visual rating
  Plant response rating, Lambsquarters: 100
lambsquarters; [6]
  Lambsquarters plant response rating: 100
Barnyardgrass [2]; [4]
  Plant response rating (0 to 100 scale), Barnyardgrass: 70
Barnyardgrass [2]; [5]
  Barnyardgrass plant response rating: 10
Barnyardgrass [2]; 500 g ai/ha, visual rating
  Plant response rating, Barnyardgrass: 100
Barnyardgrass [2]; [6]
  Barnyardgrass plant response rating: 20
cocklebur; [4]
  Plant response rating (0 to 100 scale), Cocklebur: 40
cocklebur; [5]
  Cocklebur plant response rating: 10
cocklebur; 500 g ai/ha, visual rating
  Plant response rating, Cocklebur: 90
cocklebur; [6]
  Cocklebur plant response rating: 20
Large crabgrass; [4]
  Plant response rating (0 to 100 scale), Crabgrass, Large: 40
Large crabgrass; [5]
  Crabgrass, Large plant response rating: 10
Large crabgrass; 500 g ai/ha, visual rating
  Plant response rating, Crabgrass, Large: 100
Large crabgrass; [6]
  Crabgrass, Large plant response rating: 20
blackgrass; [5]
  Blackgrass plant response rating: 20
blackgrass; [6]
  Blackgrass plant response rating: 30
rice
  Rice plant response rating: 70
Giant foxtail; [4]
  Plant response rating (0 to 100 scale), Foxtail, Giant: 40
Giant foxtail; [5]
  Foxtail, Giant plant response rating: 20
Giant foxtail; 500 g ai/ha, visual rating
  Plant response rating, Foxtail, Giant: 90
Giant foxtail; [6]
  Foxtail, Giant plant response rating: 50
velvetleaf; [4]
  Plant response rating (0 to 100 scale), Velvetleaf: 70
velvetleaf; [5]
  Velvetleaf plant response rating: 20
velvetleaf; [6]
  Velvetleaf plant response rating: 50
[3]
  Sedge, Umbrella plant response rating: 70
morningglory; 125 g ai/ha, 0 is no effect, 100 is complete control, preemergence
  Plant response rating (0 to 100 scale), Morningglory: 10
morningglory; [5]
  Morningglory plant response rating: 30
morningglory; [7]
  Plant response rating, Morningglory: 70
morningglory; [6]
  Morningglory plant response rating: 80
pigweed; [4]
  Plant response rating (0 to 100 scale), Pigweed: 80
pigweed; [5]
  Pigweed plant response rating: 40
pigweed; 500 g ai/ha, visual rating
  Plant response rating, Pigweed: 100
pigweed; [6]
  Pigweed plant response rating: 80
